{
  "source": "patent US20120214784A1",
  "about": "“SPIROPIPERIDINE COMPOUNDS AS ORL-1 RECEPTOR ANTAGONISTS” (ELI LILLY AND COMPANY, priority 2009, published 2012)",
  "key": {"[1]": {"test_system": "NIH-Swiss mice; 129S6 wild type and nociceptin/ORL1 receptor knockout mice", "test": "Forced-swim test in mice (mFST)", "format": "in vivo, mouse", "conditions": "mFST", "description": "Forced-Swim Test in Mice (mFST) mFST is an established in vivo assay for antidepressant activity (Li et al. J Pharmacol Exp Ther. 319(1):254-9, 2006.). […] The mFST was used to evaluate potential antidepressant-like activity of novel nociceptin/ORL1 antagonists according to previously published methods (Li et al. J Pharmacol Exp Ther. 319(1):254-9, 2006.). Briefly, male NIH-Swiss mice (Harlan Sprague-Dawley, Indianapolis, Ind.) weighing between 25-30 g are used. Group housed animals are removed from the vivarium to the testing area in their own cages and allowed to adapt to the new environment for at least 1 hour before testing. Alternatively, male 129S6 wild type and nociceptin/ORL1 receptor knockout mice were used to confirm dependence of the response to compound was nociceptin/ORL1 receptor dependent. All compounds are prepared in 20% Captisol, 25 mM phosphate buffer, pH 2.0 on the day of use. Mice are placed in a cylinder (diameter: 10 cm; height: 25 cm) filled with 6 cm of water (22-25° C.) for 6 min. The duration of immobility during the last 4 min. of the 6 min. period of the test was scored. A mouse is recorded as immobile when floating motionless or making only those movements necessary to keep its head above water."}, "[2]": {"target": "T1, nociceptin/ORL1 receptors (Rattus norvegicus, UniProt P35370)", "T1 construct": "rats are sacrificed by cervical dislocation and the hypothalamus is removed; from tissue; host or cells: rat hypothalamus (in vivo occupancy)", "test": "In vivo receptor occupancy (LC/MS/MS, RO Tracer) in hypothalamus", "conditions": "oral 3 mg/kg dose after 6 hr."}, "Muscarinic M2": {"target": "Muscarinic M2 (Homo sapiens, UniProt P08172)", "test": "Radioligand binding selectivity", "procedure": "(§1) Radioligand binding assays are commonly used to determine the affinity (Ki) or potency of a compound to bind to a particular receptor or target protein. A filtration-based [3H]-OFQ/nociceptin receptor binding assay is developed based on previous assay formats (Ardati A, Henningsen R A, Higelin J, Reinscheid R K, Civelli O, Monsma F J Jr. Mol. Pharmacol. 1997 May; 51(5):816-24.) with minor modifications. [3H]-OFQ/nociceptin binding assays are carried out in deep-well 96-well plates. [^3H]OFQ (final assay concentration 0.2 nM) competition studies are carried out with 5-10 μg of membrane protein (isolated from Chinese hamster ovary cells (CHO cells) expressing cloned human ORL1 receptors) in a final assay volume of 0.5 mL of buffer containing 20 mM HEPES, pH 7.4, 5 mM MgCl2, 1 mM EGTA, 100 mM NaCl, 0.1% bovine serum albumin. Samples are incubated for 60 min. at room temperature, which is found to be optimal for competition assays. The assays are terminated by filtration through glass fiber filters (Wallac filtermat A) [pretreated with 0.3% polyethylenimine (Sigma) for 1 hr] on a Tometc cell harvester, and the filters are washed three times with 5 mL of ice-cold 50 mM Tris.HCl, pH 7.4. Filtermats are then dried and imbedded with Meltilex scintillant A and the radioactivity counted in a Wallac Microbeta scintillation counter. Specific binding is determined by displacement with 100 nM unlabeled nociceptin. Curves are plotted as the percent of specific binding and IC50 values are determined using a sigmoidal dose response curve with variable slope. K, values are calculated from the IC50 by the equation of Cheng and Prusoff (Cheng, Y. C., and Prusoff, W. H., Biochem. Pharmacol. 22, 3099-3108 (1973)) where Ki=IC50×(1+D×Kd^−1)^−1. Similarly, Ki for the mu, kappa and delta opioids, serotonin, adrenergic, and muscarinic receptors may be determined using membranes expressing the desired receptor and appropriate corresponding radioligand competitor molecules."}, "Kappa Opioid": {"target": "Kappa Opioid (Homo sapiens, UniProt P41145)", "sequence (P41145 whole entry)": "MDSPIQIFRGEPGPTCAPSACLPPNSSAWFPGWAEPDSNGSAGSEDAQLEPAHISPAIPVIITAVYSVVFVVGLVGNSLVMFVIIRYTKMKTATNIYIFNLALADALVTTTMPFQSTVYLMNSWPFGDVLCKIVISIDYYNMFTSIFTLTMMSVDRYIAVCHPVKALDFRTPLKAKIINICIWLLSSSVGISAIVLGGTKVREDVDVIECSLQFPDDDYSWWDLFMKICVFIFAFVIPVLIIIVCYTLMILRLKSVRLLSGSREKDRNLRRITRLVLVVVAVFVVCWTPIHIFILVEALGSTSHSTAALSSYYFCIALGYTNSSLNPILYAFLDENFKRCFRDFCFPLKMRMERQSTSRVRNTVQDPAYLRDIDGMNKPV", "test": "Radioligand binding selectivity", "procedure": "as §1"}, "5-HT2B": {"target": "5-HT2B (Homo sapiens, UniProt P41595)", "sequence (P41595 whole entry, species assumed)": "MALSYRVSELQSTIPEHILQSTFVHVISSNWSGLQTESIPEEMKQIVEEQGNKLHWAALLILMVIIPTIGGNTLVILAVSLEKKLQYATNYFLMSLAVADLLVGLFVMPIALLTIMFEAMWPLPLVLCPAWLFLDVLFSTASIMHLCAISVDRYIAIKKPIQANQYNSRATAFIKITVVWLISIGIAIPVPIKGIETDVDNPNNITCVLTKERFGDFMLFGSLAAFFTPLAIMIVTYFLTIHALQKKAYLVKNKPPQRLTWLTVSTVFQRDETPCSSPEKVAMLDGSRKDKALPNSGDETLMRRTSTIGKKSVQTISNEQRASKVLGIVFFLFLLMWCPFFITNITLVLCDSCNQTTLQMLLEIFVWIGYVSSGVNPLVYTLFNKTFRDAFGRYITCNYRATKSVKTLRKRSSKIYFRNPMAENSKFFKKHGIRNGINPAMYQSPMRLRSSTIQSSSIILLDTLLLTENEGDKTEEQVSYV", "test": "Radioligand binding selectivity", "procedure": "as §1"}, "5-HT7": {"target": "5-HT7 (Homo sapiens, UniProt P34969)", "sequence (P34969 whole entry, species assumed)": "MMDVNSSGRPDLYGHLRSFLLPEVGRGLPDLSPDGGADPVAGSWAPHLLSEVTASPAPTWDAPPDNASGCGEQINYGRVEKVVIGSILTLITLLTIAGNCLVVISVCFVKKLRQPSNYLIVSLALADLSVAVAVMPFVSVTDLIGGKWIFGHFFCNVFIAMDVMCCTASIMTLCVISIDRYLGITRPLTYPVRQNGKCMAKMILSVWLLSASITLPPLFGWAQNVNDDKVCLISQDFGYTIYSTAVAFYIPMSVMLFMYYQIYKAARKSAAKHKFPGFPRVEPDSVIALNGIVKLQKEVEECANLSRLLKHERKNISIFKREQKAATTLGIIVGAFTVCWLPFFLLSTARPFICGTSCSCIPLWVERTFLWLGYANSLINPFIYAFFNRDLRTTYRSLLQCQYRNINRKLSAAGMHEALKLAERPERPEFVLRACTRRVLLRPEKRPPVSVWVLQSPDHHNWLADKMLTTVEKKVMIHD", "test": "Radioligand binding selectivity", "procedure": "as §1"}, "5-HT1D": {"target": "5-HT1D (Homo sapiens, UniProt P28221)", "test": "Radioligand binding selectivity", "procedure": "as §1"}, "5-HT6": {"target": "5-HT6 (Homo sapiens, UniProt P50406)", "sequence (P50406 whole entry, species assumed)": "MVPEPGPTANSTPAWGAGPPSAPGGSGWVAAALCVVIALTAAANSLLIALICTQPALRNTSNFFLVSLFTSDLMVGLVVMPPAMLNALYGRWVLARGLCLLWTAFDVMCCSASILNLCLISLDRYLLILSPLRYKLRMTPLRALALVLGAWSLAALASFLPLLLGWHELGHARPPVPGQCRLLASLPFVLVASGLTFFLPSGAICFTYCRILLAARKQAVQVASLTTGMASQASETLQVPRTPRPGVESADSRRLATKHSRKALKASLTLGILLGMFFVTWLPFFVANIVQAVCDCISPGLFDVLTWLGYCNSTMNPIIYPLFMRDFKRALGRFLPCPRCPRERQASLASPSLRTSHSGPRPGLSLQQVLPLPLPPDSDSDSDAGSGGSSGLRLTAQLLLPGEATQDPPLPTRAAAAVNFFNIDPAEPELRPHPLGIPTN", "test": "Radioligand binding selectivity", "procedure": "as §1"}, "Muscarinic M4": {"target": "Muscarinic M4 (Homo sapiens, UniProt P08173)", "sequence (P08173 whole entry)": "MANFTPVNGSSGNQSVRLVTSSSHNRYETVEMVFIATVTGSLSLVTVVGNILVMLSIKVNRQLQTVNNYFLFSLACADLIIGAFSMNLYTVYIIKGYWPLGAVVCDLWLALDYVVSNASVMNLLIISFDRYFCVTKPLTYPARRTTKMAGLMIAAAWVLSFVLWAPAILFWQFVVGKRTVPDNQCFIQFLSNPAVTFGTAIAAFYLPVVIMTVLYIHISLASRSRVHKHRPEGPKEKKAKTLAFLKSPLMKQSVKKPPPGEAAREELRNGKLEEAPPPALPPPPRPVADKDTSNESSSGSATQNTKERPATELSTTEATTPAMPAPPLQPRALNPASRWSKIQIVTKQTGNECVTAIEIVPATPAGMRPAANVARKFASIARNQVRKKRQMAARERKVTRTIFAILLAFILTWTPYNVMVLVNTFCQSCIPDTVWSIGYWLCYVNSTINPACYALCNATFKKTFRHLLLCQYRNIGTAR", "test": "Radioligand binding selectivity", "procedure": "as §1"}, "5-HT5": {"target": "5-HT5 (Homo sapiens, UniProt P47898)", "sequence (P47898 whole entry, species assumed)": "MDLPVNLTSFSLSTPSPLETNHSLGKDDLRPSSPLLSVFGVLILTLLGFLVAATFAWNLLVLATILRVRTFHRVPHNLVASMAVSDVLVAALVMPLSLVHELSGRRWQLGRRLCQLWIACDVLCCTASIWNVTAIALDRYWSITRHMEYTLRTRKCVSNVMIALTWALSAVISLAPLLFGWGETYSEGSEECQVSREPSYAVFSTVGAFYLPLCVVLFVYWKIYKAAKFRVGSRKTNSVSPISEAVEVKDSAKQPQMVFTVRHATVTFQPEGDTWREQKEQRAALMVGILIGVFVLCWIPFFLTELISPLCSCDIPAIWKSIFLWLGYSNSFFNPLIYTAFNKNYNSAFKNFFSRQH", "test": "Radioligand binding selectivity", "procedure": "as §1"}, "Muscarinic M1": {"target": "Muscarinic M1 (Homo sapiens, UniProt P11229)", "sequence (P11229 whole entry)": "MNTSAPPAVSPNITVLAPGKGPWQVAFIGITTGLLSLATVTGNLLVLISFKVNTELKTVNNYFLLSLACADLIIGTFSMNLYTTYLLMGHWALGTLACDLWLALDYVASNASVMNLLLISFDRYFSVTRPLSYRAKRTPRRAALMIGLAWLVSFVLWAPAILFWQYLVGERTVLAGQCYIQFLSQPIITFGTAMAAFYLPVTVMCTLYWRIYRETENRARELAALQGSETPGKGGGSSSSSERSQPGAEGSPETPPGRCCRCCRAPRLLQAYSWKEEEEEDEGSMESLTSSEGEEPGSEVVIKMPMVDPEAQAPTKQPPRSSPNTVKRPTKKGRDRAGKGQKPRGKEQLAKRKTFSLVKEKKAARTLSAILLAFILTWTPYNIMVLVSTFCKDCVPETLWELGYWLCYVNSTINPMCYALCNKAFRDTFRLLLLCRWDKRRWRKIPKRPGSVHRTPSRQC", "test": "Radioligand binding selectivity", "procedure": "as §1"}, "Muscarinic M3": {"target": "Muscarinic M3 (Homo sapiens, UniProt P20309)", "sequence (P20309 whole entry)": "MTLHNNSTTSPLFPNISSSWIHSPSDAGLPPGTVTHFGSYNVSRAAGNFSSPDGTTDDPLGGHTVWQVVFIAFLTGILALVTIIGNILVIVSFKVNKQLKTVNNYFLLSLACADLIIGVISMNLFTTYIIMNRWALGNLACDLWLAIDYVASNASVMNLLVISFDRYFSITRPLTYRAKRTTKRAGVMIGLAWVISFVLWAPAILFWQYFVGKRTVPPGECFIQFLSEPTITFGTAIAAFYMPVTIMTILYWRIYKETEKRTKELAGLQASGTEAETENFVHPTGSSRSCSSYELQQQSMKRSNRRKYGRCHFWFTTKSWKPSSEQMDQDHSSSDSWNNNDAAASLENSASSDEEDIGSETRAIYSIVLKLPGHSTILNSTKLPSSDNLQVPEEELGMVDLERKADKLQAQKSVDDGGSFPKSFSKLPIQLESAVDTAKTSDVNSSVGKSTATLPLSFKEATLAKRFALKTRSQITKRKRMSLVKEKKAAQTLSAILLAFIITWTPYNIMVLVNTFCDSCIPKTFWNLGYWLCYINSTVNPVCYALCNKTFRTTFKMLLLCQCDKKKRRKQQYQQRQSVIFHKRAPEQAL", "test": "Radioligand binding selectivity", "procedure": "as §1"}, "5-HT2A": {"target": "5-HT2A (Homo sapiens, UniProt P28223)", "sequence (P28223 whole entry, species assumed)": "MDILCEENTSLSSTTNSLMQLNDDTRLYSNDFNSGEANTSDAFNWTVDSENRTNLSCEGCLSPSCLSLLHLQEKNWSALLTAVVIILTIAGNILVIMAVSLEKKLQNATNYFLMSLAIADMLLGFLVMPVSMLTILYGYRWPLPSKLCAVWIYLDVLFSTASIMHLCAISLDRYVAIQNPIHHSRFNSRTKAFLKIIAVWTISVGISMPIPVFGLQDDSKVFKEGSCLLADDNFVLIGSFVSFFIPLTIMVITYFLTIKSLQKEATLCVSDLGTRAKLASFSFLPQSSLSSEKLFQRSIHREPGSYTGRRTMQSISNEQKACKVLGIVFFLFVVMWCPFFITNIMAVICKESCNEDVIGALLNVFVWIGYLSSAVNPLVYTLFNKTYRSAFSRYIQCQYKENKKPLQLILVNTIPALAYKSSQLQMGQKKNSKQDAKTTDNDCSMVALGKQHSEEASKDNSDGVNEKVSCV", "test": "Radioligand binding selectivity", "procedure": "as §1"}, "Mu Opioid": {"target": "Mu Opioid (Homo sapiens, UniProt P35372)", "test": "Radioligand binding selectivity", "procedure": "as §1"}, "5-HT1A": {"target": "5-HT1A (Homo sapiens, UniProt P08908)", "test": "Radioligand binding selectivity", "procedure": "as §1"}, "5-HT2C": {"target": "5-HT2C (Homo sapiens, UniProt P28335)", "sequence (P28335 33-458, species assumed)": "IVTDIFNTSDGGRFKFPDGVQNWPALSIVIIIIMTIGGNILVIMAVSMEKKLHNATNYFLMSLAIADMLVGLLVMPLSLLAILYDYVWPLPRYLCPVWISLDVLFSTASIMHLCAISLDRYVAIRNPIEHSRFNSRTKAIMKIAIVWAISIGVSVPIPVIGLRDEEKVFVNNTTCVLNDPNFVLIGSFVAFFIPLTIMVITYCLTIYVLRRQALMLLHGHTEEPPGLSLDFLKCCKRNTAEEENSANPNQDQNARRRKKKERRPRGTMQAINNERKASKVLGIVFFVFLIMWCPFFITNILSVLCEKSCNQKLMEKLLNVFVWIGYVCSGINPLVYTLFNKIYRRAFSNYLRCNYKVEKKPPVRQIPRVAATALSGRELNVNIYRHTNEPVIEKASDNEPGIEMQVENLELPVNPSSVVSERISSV", "test": "Radioligand binding selectivity", "procedure": "as §1"}, "Delta Opioid": {"target": "Delta Opioid (Homo sapiens, UniProt P41143)", "test": "Radioligand binding selectivity", "procedure": "as §1"}, "5-HT4": {"target": "5-HT4 (Homo sapiens, UniProt Q13639)", "sequence (Q13639 whole entry, species assumed)": "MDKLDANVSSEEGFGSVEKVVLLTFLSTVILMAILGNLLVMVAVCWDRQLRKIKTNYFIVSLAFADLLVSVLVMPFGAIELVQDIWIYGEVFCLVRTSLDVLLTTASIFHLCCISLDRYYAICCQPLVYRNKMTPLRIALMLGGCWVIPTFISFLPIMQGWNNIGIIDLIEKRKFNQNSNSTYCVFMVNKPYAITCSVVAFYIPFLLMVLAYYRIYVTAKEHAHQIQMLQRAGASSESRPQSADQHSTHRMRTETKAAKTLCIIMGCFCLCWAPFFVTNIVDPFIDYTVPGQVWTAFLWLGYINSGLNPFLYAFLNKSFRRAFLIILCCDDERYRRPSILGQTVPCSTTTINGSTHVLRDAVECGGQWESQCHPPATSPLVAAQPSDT", "test": "Radioligand binding selectivity", "procedure": "as §1"}, "Muscarinic M5": {"target": "Muscarinic M5 (Homo sapiens, UniProt P08912)", "test": "Radioligand binding selectivity", "procedure": "as §1"}, "5-HT1B": {"target": "5-HT1B (Homo sapiens, UniProt P28222)", "test": "Radioligand binding selectivity", "procedure": "as §1"}, "5-HT1E": {"target": "5-HT1E (Homo sapiens, UniProt P28566)", "test": "Radioligand binding selectivity", "procedure": "as §1"}},
  "note": "pKi: −log10 of the molar value.",
  "data": [
    {"smiles": "Cc1nn(-c2c(F)cccc2F)cc1CN1CCC2(CC1)OCC(F)(F)c1cc(Cl)sc12.O=C(O)C(O)C(O)C(=O)O", "note": "[Example 2, 2-Chloro-1′-[[1-(2,6-difluorophenyl)-3-methyl-pyrazol-4-yl]methyl]-4,4-difluoro-spiro[5H-thieno[2,3-c]pyran-7,4′-piperidine] (L)-Tartrate]", "values": [
      {"measurement": "maximum effect, reduction in immobilization time", "setting": "[1]", "result": 56, "unit": "%"},
      {"measurement": "ED60", "setting": "[1]; immobility time", "result": 23, "unit": "nM"},
      {"measurement": "receptor occupancy at 3 mg/kg", "setting": "[2]", "result": 76, "unit": "%"},
      {"measurement": "pKi", "setting": "Muscarinic M2", "result": "< 5.10"},
      {"measurement": "pKi", "setting": "Kappa Opioid", "result": "< 6.34"},
      {"measurement": "pKi", "setting": "5-HT2B", "result": 5.94},
      {"measurement": "pKi", "setting": "5-HT7", "result": "< 5.40"},
      {"measurement": "pKi", "setting": "5-HT1D", "result": "< 5.10"},
      {"measurement": "pKi", "setting": "5-HT6", "result": "< 5.23"},
      {"measurement": "pKi", "setting": "Muscarinic M4", "result": 5.20},
      {"measurement": "pKi", "setting": "5-HT5", "result": "< 5.04"},
      {"measurement": "pKi", "setting": "Muscarinic M1", "result": 5.86},
      {"measurement": "pKi", "setting": "Muscarinic M3", "result": "< 4.62"},
      {"measurement": "pKi", "setting": "5-HT2A", "result": "< 5.14"},
      {"measurement": "pKi", "setting": "Mu Opioid", "result": "< 6.33"},
      {"measurement": "pKi", "setting": "5-HT1A", "result": "< 5.50"},
      {"measurement": "pKi", "setting": "5-HT2C", "result": "< 5.08"},
      {"measurement": "pKi", "setting": "Delta Opioid", "result": "< 6.32"},
      {"measurement": "pKi", "setting": "5-HT4", "result": "< 5.71"},
      {"measurement": "pKi", "setting": "Muscarinic M5", "result": 5.55},
      {"measurement": "pKi", "setting": "5-HT1B", "result": "< 5.45"},
      {"measurement": "pKi", "setting": "5-HT1E", "result": "< 5.27"}
    ]}
  ]
}
